Laboratory results from patent US20100178365A1, “EPICATECHIN DEFICIENT GREEN TEA” (priority 2007, published 2010).

How the values were obtained:
[1] = test system: cultured adipocytes, myocytes and hepatocytes; assay: glucose uptake ability at cultured cells (FIG. 3); assay type: cell-based; conditions: for normal glucose uptake mechanism after a meal: hepatocytes, adipocytes and muscle cells
Excerpt: We can see that basal glucose uptake ability and insulin stimulated glucose uptake ability decreased based on the given EGCG concentration.

KATP channels = assay: inhibition of KATP channels and their ATP/PIP sensitivity; assay type: biochemical; conditions: for effect on KATP channels: via allosteric interactions with phospholipids of the lipid membrane
Protocol: EGCG and ECG with gallate ester groups inhibited KATP channels via allosteric interactions with phospholipids of the lipid membrane. But the effective EGCG concentration was more than 10 μM. Further, EGCG is the only green tea epicatechin that decreases the sensitivity of ATP and PIP to the KATP channel. By this mechanism, we concluded that EGCG caused decrease in insulin secretion in response to glucose in the β-cell of pancreas. Patients with diabetes or people with a risk factor for diabetes should be careful because the effective concentration of EGCG for this mechanism could be 1-10 μM, which is an achievable concentration when a person drinks 2-8 cups of green tea while fasting.

[2] = intraperitoneal glucose tolerance test after intravenous epicatechin (FIG. 1); assay type: in vivo; conditions: rats; epicatechin intravenously 30 min before glucose loading 2 g/kg
Protocol: Each epicatechin was injected intravenously 30 min before the glucose loading.

[3] = adipocytes, myocytes and hepatocytes, based on the given EGCG concentration

Structure (SMILES)	normal glucose uptake mechanism after a meal [1]	effect on KATP channels (KATP channels)	blood glucose concentration during intraperitoneal glucose tolerance test [2]	blood EGCG level at which the glucose uptake inhibition can occur [1]	basal glucose uptake ability [1, 3]	insulin stimulated glucose uptake ability [1, 3]	effective concentration for KATP channel inhibition (KATP channels)	sensitivity of ATP and PIP to the KATP channel (KATP channels)	effective concentration for decreasing ATP and PIP sensitivity of the KATP channel (KATP channels; stated as 'could be')
O=C(O[C@@H]1Cc2c(O)cc(O)cc2O[C@@H]1c1ccc(O)c(O)c1)c1cc(O)c(O)c(O)c1 [ECG, (−)-epicatechin-3-gallate]	inhibited	inhibited	High blood glucose level	–	–	–	–	–	–
O=C(O[C@@H]1Cc2c(O)cc(O)cc2O[C@@H]1c1cc(O)c(O)c(O)c1)c1cc(O)c(O)c(O)c1 [EGCG, (−)-epigallocatechin-3-gallate]	inhibited	inhibited	High blood glucose level	lower than 10 μM	decreased	decreased	more than 10 μM	decreases	1 to 10 µM
